System: NOMO1
Experiment: cell viability relative to DMSO control; higher = less cytotoxic
Settings: 48 h
Summary of the method: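 NOMO1 or SEM (500 cells/well) or P12-Ichikawa (1000 cells/well) leukemia cells were adapted for at least four passages in each medium. They were seeded in 1536-well plates (5 μl) and pin-dosed with library compounds in DMSO over an 11-point threefold series, 47 μM to 0.79 nM. CellTiter-Glo One luminescence was read after 48 h at 37°C. Viability is the per-plate percentage relative to DMSO wells, with cell-free wells as background.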

[1] = HPLM + 10% dialyzed FBS, 0.000781 µM
[2] = HPLM + 10% dialyzed FBS, 0.00234 µM
[3] = HPLM + 10% dialyzed FBS, 0.00702 µM
[4] = HPLM + 10% dialyzed FBS, 0.0211 µM
[5] = HPLM + 10% dialyzed FBS, 0.0632 µM
[6] = HPLM + 10% dialyzed FBS, 0.19 µM
[7] = HPLM + 10% dialyzed FBS, 0.569 µM
[8] = HPLM + 10% dialyzed FBS, 1.71 µM
[9] = HPLM + 10% dialyzed FBS, 5.12 µM
[10] = HPLM + 10% dialyzed FBS, 15.4 µM
[11] = HPLM + 10% dialyzed FBS, 46.1 µM
[12] = RPMI 5 mM glucose + 10% FBS, 0.000781 µM
[13] = RPMI 5 mM glucose + 10% FBS, 0.00234 µM
[14] = RPMI 5 mM glucose + 10% FBS, 0.00702 µM
[15] = RPMI 5 mM glucose + 10% FBS, 0.0211 µM
[16] = RPMI 5 mM glucose + 10% FBS, 0.0632 µM
[17] = RPMI 5 mM glucose + 10% FBS, 0.19 µM
[18] = RPMI 5 mM glucose + 10% FBS, 0.569 µM
[19] = RPMI 5 mM glucose + 10% FBS, 1.71 µM
[20] = RPMI 5 mM glucose + 10% FBS, 5.12 µM
[21] = RPMI 5 mM glucose + 10% FBS, 15.4 µM
[22] = RPMI 5 mM glucose + 10% FBS, 46.1 µM
[23] = RPMI 5 mM glucose + 10% dialyzed FBS, 0.000781 µM
[24] = RPMI 5 mM glucose + 10% dialyzed FBS, 0.00234 µM
[25] = RPMI 5 mM glucose + 10% dialyzed FBS, 0.00702 µM
[26] = RPMI 5 mM glucose + 10% dialyzed FBS, 0.0211 µM
[27] = RPMI 5 mM glucose + 10% dialyzed FBS, 0.0632 µM
[28] = RPMI 5 mM glucose + 10% dialyzed FBS, 0.19 µM
[29] = RPMI 5 mM glucose + 10% dialyzed FBS, 0.569 µM
[30] = RPMI 5 mM glucose + 10% dialyzed FBS, 1.71 µM
[31] = RPMI 5 mM glucose + 10% dialyzed FBS, 5.12 µM
[32] = RPMI 5 mM glucose + 10% dialyzed FBS, 15.4 µM
[33] = RPMI 5 mM glucose + 10% dialyzed FBS, 46.1 µM

| SMILES | cell viability [1] [%] | cell viability [2] [%] | cell viability [3] [%] | cell viability [4] [%] | cell viability [5] [%] | cell viability [6] [%] | cell viability [7] [%] | cell viability [8] [%] | cell viability [9] [%] | cell viability [10] [%] | cell viability [11] [%] | cell viability [12] [%] | cell viability [13] [%] | cell viability [14] [%] | cell viability [15] [%] | cell viability [16] [%] | cell viability [17] [%] | cell viability [18] [%] | cell viability [19] [%] | cell viability [20] [%] | cell viability [21] [%] | cell viability [22] [%] | cell viability [23] [%] | cell viability [24] [%] | cell viability [25] [%] | cell viability [26] [%] | cell viability [27] [%] | cell viability [28] [%] | cell viability [29] [%] | cell viability [30] [%] | cell viability [31] [%] | cell viability [32] [%] | cell viability [33] [%] |
| --- | --- | --- | --- | --- | --- | --- | --- | --- | --- | --- | --- | --- | --- | --- | --- | --- | --- | --- | --- | --- | --- | --- | --- | --- | --- | --- | --- | --- | --- | --- | --- | --- | --- |
| CN(C)CCOC(c1ccccc1)c1ccccc1 | 94.4 | 84 | 105 | 116 | 111 | 112 | 112 | 113 | 109 | 104 | 83.5 | 112 | 111 | 106 | 121 | 117 | 106 | 115 | 107 | 107 | 101 | 53.6 | 94.6 | 112 | 101 | 113 | 122 | 111 | 110 | 109 | 104 | 119 | 64.6 |
| O=C(Nc1ccc(OC(F)(F)F)cc1)c1sccc1NCc1ccnc2ccccc12 | 118 | 109 | 127 | 123 | 109 | 110 | 80.1 | 43.1 | 33.4 | 33.8 | 41.4 | 118 | 101 | 117 | 121 | 112 | 105 | 108 | 96 | 52.8 | 22.6 | 25.3 | 105 | 106 | 113 | 117 | 107 | 109 | 116 | 91.6 | 57 | 28 | 36.1 |
| Cc1cc(O)c2c3c4c(cc(O)c13)C(C)(C)C(=O)c1c(O)cc(O)c(c1-4)C2=O | 125 | 121 | 107 | 115 | 109 | 112 | 115 | 99.2 | 114 | 101 | 7.32 | 106 | 109 | 109 | 101 | 88.6 | 101 | 90.5 | 104 | 101 | 85.2 | 26.1 | 89.5 | 95.2 | 118 | 98.9 | 109 | 86.5 | 107 | 107 | 112 | 114 | 36.5 |
| CC[C@H]1OC(=O)[C@H](C)[C@@H](O[C@H]2C[C@@](C)(OC)[C@@H](O)[C@H](C)O2)[C@H](C)[C@@H](O[C@@H]2O[C@@H](C)C[C@H](N(C)C)[C@H]2O)[C@](C)(O)C[C@@H](C)C(=O)[C@H](C)[C@@H](O)[C@]1(C)O | 86.3 | 80.4 | 97.4 | 93 | 105 | 105 | 108 | 87 | 80.9 | 63.4 | 56.7 | 77.5 | 81 | 79.8 | 94.9 | 91.8 | 92.1 | 88.8 | 84.9 | 81 | 88.8 | 55 | 77.8 | 90.3 | 91 | 91.6 | 102 | 86.8 | 93.3 | 101 | 90.3 | 95.3 | 51.8 |
| O=C1c2c(O)cccc2[C@H]([C@@H]2O[C@H](CO)[C@@H](O)[C@H](O)[C@H]2O)c2cc(CO)cc(O)c21 | 87 | 101 | 97.9 | 77 | 110 | 122 | 102 | 102 | 111 | 93.4 | 97.5 | 87.8 | 91.8 | 81 | 80.8 | 94.5 | 79.8 | 80.3 | 83.1 | 83.1 | 85.8 | 84.6 | 84.7 | 80.2 | 106 | 88.3 | 87.6 | 96.6 | 96.3 | 86.6 | 89 | 83.1 | 94.6 |
| O=C1Nc2ccccc2/C1=C1\Nc2ccccc2C1=O | 105 | 116 | 112 | 112 | 99.1 | 97.7 | 110 | 96.4 | 112 | 102 | 90.5 | 93 | 87.4 | 97.6 | 103 | 103 | 94.7 | 93.7 | 88.7 | 96.2 | 85.6 | 86.9 | 98.2 | 95.9 | 109 | 100 | 88.1 | 93.9 | 89.4 | 94.3 | 89.4 | 89.1 | 84.9 |
| Fc1ccc(C(c2ccc(F)cc2)N2CCN(C/C=C/c3ccccc3)CC2)cc1 | 115 | 123 | 144 | 135 | 117 | 121 | 104 | 103 | 105 | 112 | 95.9 | 112 | 111 | 106 | 123 | 113 | 114 | 107 | 107 | 108 | 115 | 104 |  |  |  |  |  |  |  |  |  |  |  |

Reference: the supplement of paper PMC11451515
